US20090074867A1, “ORALLY DISPERSIBLE PHARMACEUTICAL COMPOSITION AND PROCESS FOR THE PREPARATION THEREOF” (priority 2004, published 2009)

Assay: Dissolution / microcapsule releasing test in phosphate buffer pH 7.2, 100 rpm, UV spectrophotometer
Assay type: physicochemical
Procedure: The test was carried out in phosphate buffer at pH 7.2 (obtained by dissolving 6.8 g of KH2 PO4 and 1.4 g of NaOH in 1 litre of demineralised water) at 100 rpm for the microcapsule dissolution test and 50 rpm for the tablet dissolution test according to the method described in European Pharmacopoeia, Ed. 4.4 of the April 2003. • dissolution in phosphate buffer at pH 7.2 (obtained by dissolving 6.8 g of KH2PO4 and 1.4 g of NaOH in 1 litre of demineralised water) at 100 rpm; the average of 5 tests has given the following results: • 30.1% after 5 minutes, 58.6% after 10 minutes, 71.0% after 15 minutes, 78.8% after 20 minutes, 86.9% after 30 minutes, • palatability: the palatability test was carried out as indicated above administering 200 mg of Ibuprofen BP 80 to each individual. […] The microcapsules obtained in Examples 1 to 3 (MC1, MC2 and MC3) were subjected to the releasing test in phosphate buffer by means of a UV spectrophotometer. In order to assist comparison the results obtained on AI as such in the same test are shown in the bottom line (see previous Experimental Part).

For CC(C)Cc1ccc(C(C)C(=O)O)cc1 (centres unmarked) [Ibuprofen BP 80, Ibuprofen], which “AI released, 0 min” value (0 min) is on record?
The value was 0%.

What about the “AI released, 5 min” value of the same compound?
Its value is 30.1%.

And the “AI released, 5 min” value (listed as AI)?
The value was 30.10%.

What about the “AI released, 10 min” value of the same compound?
Its value is 58.6%.

And the “AI released, 10 min” value (listed as AI)?
The value was 58.60%.

And the “AI released, 15 min” value?
Its value is 71.0%.

What about the “AI released, 15 min” value (listed as AI) of the same compound?
Its value is 71.00%.

What about the “AI released, 20 min” value of the same compound?
The value was 78.8%.

And the “AI released, 20 min” value (listed as AI)?
Its value is 78.80%.

And the “AI released, 30 min” value?
Its value is 86.9%.

And the “AI released, 30 min” value (listed as AI)?
The value was 86.90%.
